Measurements: article PMC7774954, “Interactomic affinity profiling by holdup assay: Acetylation and distal residues impact the PDZome-binding specificity of PTEN phosphatase” (PLoS ONE, 2020)
*1 amine or outer side, *2 acyl side, *3 side chain or, on linkers, in order; H or OH if unused. Where a SMILES comes first, the peptide text is derived from it. The star is where a group is joined. X1 = O=C(CCCC[C@@H]1SC[C@@H]2NC(=O)N[C@@H]21)NCCCOCCOCCOCCCN*; Suc = O=C(CCC(=O)[*:2])[*:1]

How the values were obtained:
NHERF2 PDZ 1 = target: T1, NHERF2 PDZ 1 (Homo sapiens, UniProt Q15599); assay: Holdup assay, NHERF2-1; assay type: binding; conditions: PDZ domain NHERF2-1
T1 construct: made in house; host or cells: E. coli
Experimental: The holdup assay was performed on a Tecan freedom Evo200 robot with 384-well plates in singlicate for the three 11-mer PTEN variants and the 13-mer PTEN peptide as described in [31, 32]. Briefly, prior to interaction assay, 2.5 μL of streptavidin resin was saturated in each well with 20 μL of biotinylated PBM peptides (42 μM) and then washed twice with an excess of free biotin, while the reference resin was incubated only with biotin. Right before the holdup experiment, the PDZ library was spiked with an internal standard of lysozyme. Then, the biotin- or PBM-saturated resin was incubated, each in a distinct well of a 384-well plate, with complete cell lysates diluted so that the concentration of the tag-PDZ present in the crude extract is adjusted at 4 μM. After a sufficient time to reach complex equilibrium (15 min.), a fast and mild filtration step is performed and the tag-PDZ concentrations were measured by capillary electrophoresis instrument (LabChip GXII, PerkinElmer, Massachusets, USA). Standard markers were used to convert migration time into molecular weight on the LabChip software and inappropriate molecular weight markers were corrected or excluded.
For filtered data, the BI was extracted with the following equation (Eq 1) that estimates the depleted fraction after superimposition of the sample and reference electropherograms: BI=Iref−Ilig/Iref (1) where Iref and Ilig are the intensities of the tag-PDZ peaks measured, for each PDZ domain/PBM peptide interaction pair, in the biotin reference and the PBM electropherograms, respectively.
BIs were transformed into dissociation constants (KD) using the following formula: KD=([PDZtot]−BI·[PDZtot])·([PBMtot]−BI·[PDZtot])/BI·[PDZtot] (2) where [PDZtot] and [PBMtot] correspond to the total concentrations of the PDZ domain (usually around 4 μM) and the PBM peptide used during the assay. Since the PBMtot concentration in the resin during the holdup assay parameter may differ from one peptide to another and remains unknown, it is impossible to directly convert BI values into KD constants. We systematically determined the KD constants for a subset of PDZ/PBM pairs by competitive FP. […] For each PBM, the average peptide concentration was calculated after outlier rejection based on the absolute distances from the median as compared to three times the standard deviation (3σ rule), with never more than 2 values rejected.

ARHGAP23-1 = assay: Holdup assay, ARHGAP23-1; assay type: binding, human
human PDZome = assay: Promiscuity / specificity index from PDZome affinity profile (combined holdup and FP); assay type: binding; conditions: for Nb PDZ (BI): Val for BI=0.2; for 1/2PDZ: number of PDZ, 1/2PDZ Min and Max; for number of PDZ domains above the half-maximal binding affinity: relative to number of tested and validated PDZ domains; for Max Log(Kd): maximum over PDZome
Source text: Using the mean concentration obtained above for each of the different PTEN peptides, the experimental BI values recorded by holdup for all tested domain/peptide pairs were subsequently transformed into equilibrium dissociation constants. […] Thereafter, affinity data measured by FP assay were also included in the […] for the PDZ domains (MAST1-1, MAST2-1, SNX27-1, MAGI1-2 and GRID2IP-2) for which holdup data were missing according to the low quality score in the filtering step. These interaction data detected only by competitive FP and not by holdup represented 1 to 2 additional PDZ binders per PTEN construct. […] This transformation into affinity values makes then possible to compare binding affinity profiles obtained for different peptides and potentially different batches.
The above described holdup-FP strategy delivers binding affinity constants, a universal chemical property. […] We then looked for a numerical parameter that would express, in a quantitative way, this specificity or promiscuity information. For this purpose, we calculated for each profile the difference between the maximal and the minimal significant affinity values detected by the assay, ΔGmax − ΔGmin. Next, we introduced a threshold affinity, called "half-maximal binding affinity" defined as follows: ΔGhalf = ΔGmin + (ΔGmax − ΔGmin)/2. […] Alternatively, the specificity index IS could be defined as 1 –IP. Therefore, the lower the promiscuity index, the higher the specificity index, the higher the specificity of the PBM for a limited number of selected domains across the PDZome.
We probed the specificity index on the PDZome-binding profiles of the four PTEN peptides. […] This would indicate, in qualitative terms, that the PTEN_13 peptide selects PDZ domains in a more specific -less promiscuous- way than that of the three of other peptides. […] One should note that it was not possible to determine index uncertainty by error propagation starting from holdup data, since BI values have been recorded in singlicate. However, the dispersion of log(KD) values around the perfect theoretical correlation line in the correlation plot (Fig 5B) is representative of global IS uncertainty, which was therefore estimated by averaging the distances between the experimental dots and the theoretical diagonal. Details about uncertainties and Fisher’s test calculations are provided in Supp. Materials and S1 File.
Uncertainty on IS was estimated according to several steps described below:
- Since it’s not possible strictly talking to propagate uncertainty for data recorded in singlicate, we considered that log(KD) uncertainty is contained in the correlation plot [log(KD,HU) vs. log(KD,FP)] when comparing the experimental data with the perfect theoretical correlation (the dotted diagonal line).
- Originally, we estimated the 1/2 PDZ index by counting the number of PDZ with a log(KD) value above the threshold calculated with the formulae developed in the manuscript. Then we did the same type of counting for [threshold value + log(KD) uncertainty] and for [threshold value - log(KD) uncertainty].
- From the difference in the two counts is estimated the index uncertainty.
Due to the low number of PDZ occurrences, a Fisher's exact test was preferred to estimate the p-value. Calculations were performed online with http://astatsa.com using default parameters.

DLG1-3 = assay: Holdup assay, DLG1-3; assay type: binding, human
LNX1-2 = target: T2, LNX1-2 (Homo sapiens, UniProt Q8TBB1); assay: Holdup assay, LNX1-2; assay type: binding
T2 sequence (Q8TBB1 385-467): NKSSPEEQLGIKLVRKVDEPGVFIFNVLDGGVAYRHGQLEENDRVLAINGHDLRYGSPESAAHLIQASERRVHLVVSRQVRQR

T1 sequence (Q15599 11-90 limits assumed): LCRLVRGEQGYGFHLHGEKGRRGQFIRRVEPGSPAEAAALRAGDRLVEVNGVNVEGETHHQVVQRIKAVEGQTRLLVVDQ

SMILES | BI (NHERF2 PDZ 1) | BI (ARHGAP23-1) | LogKD (ARHGAP23-1) | Nb PDZ (BI) (human PDZome) | 1/2PDZ (human PDZome) | number of PDZ domains above the half-maximal binding affinity (human PDZome) | BI (DLG1-3) | LogKD (DLG1-3) | BI (LNX1-2) | Kd (LNX1-2) | specificity (in words) (human PDZome; compared with the three 11-mer peptides) | Max Log(Kd) (human PDZome)
CC[C@H](C)[C@H](NC(=O)[C@H](CCC(N)=O)NC(=O)[C@@H](NC(=O)[C@H](Cc1c[nH]cn1)NC(=O)[C@H](CCC(N)=O)NC(=O)[C@H](CC(=O)O)NC(=O)[C@H](CCC(=O)O)NC(=O)[C@H](CC(=O)O)NC(=O)CCC(=O)NCCCOCCOCCOCCCNC(=O)CCCC[C@@H]1SC[C@@H]2NC(=O)N[C@@H]21)[C@@H](C)O)C(=O)N[C@H](C(=O)N[C@@H](CCCNC(=N)N)C(=O)N[C@H](C(=O)O)C(C)C)[C@@H](C)O [PTEN_KR] ({X1-Suc}-DEDQHTQITRV-OH) | 0.169 | -0.018 | 3.655 | 38 | 9 | 9 | 0.077 | 3.655 |  |  |  | 
CC[C@H](C)[C@H](NC(=O)[C@H](CCC(N)=O)NC(=O)[C@@H](NC(=O)[C@H](Cc1c[nH]cn1)NC(=O)[C@H](CCC(N)=O)NC(=O)[C@H](CC(=O)O)NC(=O)[C@H](CCC(=O)O)NC(=O)[C@H](CC(=O)O)NC(=O)[C@H](Cc1ccccc1)NC(=O)[C@@H]1CCCN1C(=O)CCC(=O)NCCCOCCOCCOCCCNC(=O)CCCC[C@@H]1SC[C@@H]2NC(=O)N[C@@H]21)[C@@H](C)O)C(=O)N[C@H](C(=O)N[C@@H](CCCCN)C(=O)N[C@H](C(=O)O)C(C)C)[C@@H](C)O [PTEN_13] ({X1-Suc}-PFDEDQHTQITKV-OH) | 0.11 | -0.062 |  | 25 | 4 | 4 | -0.033 |  | 0.44 | 19.4 µM | slight increased specificity | 5.89
CC[C@H](C)[C@H](NC(=O)[C@H](CCC(N)=O)NC(=O)[C@@H](NC(=O)[C@H](Cc1c[nH]cn1)NC(=O)[C@H](CCC(N)=O)NC(=O)[C@H](CC(=O)O)NC(=O)[C@H](CCC(=O)O)NC(=O)[C@H](CC(=O)O)NC(=O)CCC(=O)NCCCOCCOCCOCCCNC(=O)CCCC[C@@H]1SC[C@@H]2NC(=O)N[C@@H]21)[C@@H](C)O)C(=O)N[C@H](C(=O)N[C@@H](CCCCNC(C)=O)C(=O)N[C@H](C(=O)O)C(C)C)[C@@H](C)O [PTEN_Ac] | 0.078 | -0.108 | 3.605 | 43 | 12 | 12 | -0.088 | 3.605 | 0.164 |  |  | 
CC[C@H](C)[C@H](NC(=O)[C@H](CCC(N)=O)NC(=O)[C@@H](NC(=O)[C@H](Cc1c[nH]cn1)NC(=O)[C@H](CCC(N)=O)NC(=O)[C@H](CC(=O)O)NC(=O)[C@H](CCC(=O)O)NC(=O)[C@H](CC(=O)O)NC(=O)CCC(=O)NCCCOCCOCCOCCCNC(=O)CCCC[C@@H]1SC[C@@H]2NC(=O)N[C@@H]21)[C@@H](C)O)C(=O)N[C@H](C(=O)N[C@@H](CCCCN)C(=O)N[C@H](C(=O)O)C(C)C)[C@@H](C)O [PTEN_11] | 0.099 | -0.109 | 3.519 | 19 | 9 | 9 | 0.044 | 3.519 | 0.105 |  |  | 4.90
